Experimental findings from the supplement of paper PMC10307832 are described below.

Assay in all cases: relative viability (nuclei count vs DMSO), 5 days (fraction); higher = more cells survive
Compound in the assay “KIN001-266 + Foretinib”: CCN1CCC(CC1)N2C=C(N=N2)CNC3=CC4=C(C(=CN=C4C(=C3)Cl)C#N)NC5=CC(=C(C=C5)F)Cl [KIN001-266] + COc1cc2c(Oc3ccc(NC(=O)C4(C(=O)Nc5ccc(F)cc5)CC4)cc3F)ccnc2cc1OCCCN1CCOCC1 [Foretinib] (partner 0.25 µM)
In a few lines:
(§1)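 Cells from lung cancer lines were seeded into 1536-well plates and, one day later, dosed by pin tool. Treatments were either a single drug or a fixed dose of an anchor drug with five library-drug doses (not always all listed) in √10 steps. After 5 days, nuclei were stained in a one-step fixation (final 0.05% Triton X-100, 1% formaldehyde, 1 ug/ml Hoechst) and counted on 4× images, and relative viability is the treated-to-vehicle nuclei ratio, as the median of duplicate plates.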

Compound in the assay “KIN001-266 + Pictilisib”: CCN1CCC(CC1)N2C=C(N=N2)CNC3=CC4=C(C(=CN=C4C(=C3)Cl)C#N)NC5=CC(=C(C=C5)F)Cl [KIN001-266] + CS(=O)(=O)N1CCN(Cc2cc3nc(-c4cccc5[nH]ncc45)nc(N4CCOCC4)c3s2)CC1 [Pictilisib] (partner 1 µM)
In a few lines: as §1

Compound in the assay “KIN001-266 + AZD7762”: CCN1CCC(CC1)N2C=C(N=N2)CNC3=CC4=C(C(=CN=C4C(=C3)Cl)C#N)NC5=CC(=C(C=C5)F)Cl [KIN001-266] + NC(=O)Nc1cc(-c2cccc(F)c2)sc1C(=O)N[C@H]1CCCNC1 [AZD7762] (partner 0.2 µM)
In a few lines: as §1

Compound in the assay “KIN001-266 + Vorinostat”: CCN1CCC(CC1)N2C=C(N=N2)CNC3=CC4=C(C(=CN=C4C(=C3)Cl)C#N)NC5=CC(=C(C=C5)F)Cl [KIN001-266] + O=C(CCCCCCC(=O)Nc1ccccc1)NO [Vorinostat] (partner 1 µM)
The gist of the method: as §1

Consider RERF-LC-KJ, for which the relative viability with KIN001-266 + Foretinib (first compound 0.08 µM) was determined as 0.882; with KIN001-266 + Foretinib (first compound 0.253 µM), 0.873; with KIN001-266 + Foretinib (first compound 0.8 µM), 0.837; with KIN001-266 + Foretinib (first compound 2.53 µM) it was 0.837; in the assay with KIN001-266 + Foretinib (first compound 8 µM) it was 0.757; with KIN001-266 + Pictilisib (first compound 0.08 µM), 0.537. Besides, the relative viability was determined as 0.554 in the assay with KIN001-266 + Pictilisib (first compound 0.253 µM); 0.516 with KIN001-266 + Pictilisib (first compound 0.8 µM); 0.635 in the assay with KIN001-266 + Pictilisib (first compound 2.53 µM); 0.315 in the assay with KIN001-266 + Pictilisib (first compound 8 µM); 0.984 with KIN001-266 + AZD7762 (first compound 0.08 µM); 0.876 with KIN001-266 + AZD7762 (first compound 0.253 µM). The relative viability worked out at 0.809 with KIN001-266 + AZD7762 (first compound 0.8 µM); 0.768 with KIN001-266 + AZD7762 (first compound 2.53 µM); 0.947 with KIN001-266 + AZD7762 (first compound 8 µM); 0.765 with KIN001-266 + Vorinostat (first compound 0.08 µM); 0.779 in the assay with KIN001-266 + Vorinostat (first compound 0.253 µM); 0.65 with KIN001-266 + Vorinostat (first compound 0.8 µM). Moreover, the relative viability with KIN001-266 + Vorinostat (first compound 2.53 µM) was found to be 0.682; with KIN001-266 + Vorinostat (first compound 8 µM), 0.555.

As to LOU-NH91, the relative viability amounted to 0.943 with KIN001-266 + Foretinib (first compound 0.08 µM); 0.924 with KIN001-266 + Foretinib (first compound 0.253 µM); 0.623 with KIN001-266 + Foretinib (first compound 0.8 µM); 0.804 with KIN001-266 + Foretinib (first compound 2.53 µM); 0.724 in the assay with KIN001-266 + Foretinib (first compound 8 µM); 0.542 with KIN001-266 + Pictilisib (first compound 0.08 µM). Moreover, the relative viability with KIN001-266 + Pictilisib (first compound 0.253 µM) was determined as 0.533; in the assay with KIN001-266 + Pictilisib (first compound 0.8 µM), 0.443; with KIN001-266 + Pictilisib (first compound 2.53 µM) it was 0.469; with KIN001-266 + Pictilisib (first compound 8 µM) it was 0.505; in the assay with KIN001-266 + AZD7762 (first compound 0.08 µM), 0.785; with KIN001-266 + AZD7762 (first compound 0.253 µM), 0.617. In addition, the relative viability with KIN001-266 + AZD7762 (first compound 0.8 µM) turned out to be 0.711; with KIN001-266 + AZD7762 (first compound 2.53 µM) it was 0.711; with KIN001-266 + AZD7762 (first compound 8 µM) it was 0.734; in the assay with KIN001-266 + Vorinostat (first compound 0.08 µM), 0.96; with KIN001-266 + Vorinostat (first compound 0.253 µM), 0.924; with KIN001-266 + Vorinostat (first compound 0.8 µM), 0.71. The relative viability with KIN001-266 + Vorinostat (first compound 2.53 µM) was found to be 0.746; in the assay with KIN001-266 + Vorinostat (first compound 8 µM), 0.797.

NCI-H2347: the relative viability with KIN001-266 + Foretinib (first compound 0.08 µM) came to 1.04; with KIN001-266 + Foretinib (first compound 0.253 µM), 0.622; in the assay with KIN001-266 + Foretinib (first compound 0.8 µM), 0.746; with KIN001-266 + Foretinib (first compound 2.53 µM) it was 0.844; with KIN001-266 + Foretinib (first compound 8 µM), 0.632; with KIN001-266 + Pictilisib (first compound 0.08 µM), 0.663. Moreover, the relative viability with KIN001-266 + Pictilisib (first compound 0.253 µM) was 0.698; in the assay with KIN001-266 + Pictilisib (first compound 0.8 µM) it was 0.476; with KIN001-266 + Pictilisib (first compound 2.53 µM), 0.422; in the assay with KIN001-266 + Pictilisib (first compound 8 µM) it was 0.485; with KIN001-266 + AZD7762 (first compound 0.08 µM), 0.77; in the assay with KIN001-266 + AZD7762 (first compound 0.253 µM), 0.799. Further, the relative viability with KIN001-266 + AZD7762 (first compound 0.8 µM) came to 0.771; with KIN001-266 + AZD7762 (first compound 2.53 µM), 0.736; in the assay with KIN001-266 + AZD7762 (first compound 8 µM) it was 0.537; with KIN001-266 + Vorinostat (first compound 0.08 µM), 0.678; in the assay with KIN001-266 + Vorinostat (first compound 0.253 µM), 0.647; with KIN001-266 + Vorinostat (first compound 0.8 µM), 0.62. Further, the relative viability with KIN001-266 + Vorinostat (first compound 2.53 µM) worked out at 0.594; with KIN001-266 + Vorinostat (first compound 8 µM), 0.418.
